{"source": "paper PMC9602792", "about": "“Preclinical evaluation of the epithelial sodium channel inhibitor AZD5634 and implications on human translation” (American Journal of Physiology - Lung Cellular and …, 2022)", "key": {"Cftr^−/− rats": {"test_system": "Cftr^−/− rats", "experiment": "μOCT of trachea and lungs excised en bloc from Cftr-knockout rats treated in vivo", "set-up": "species or system rat", "details": "seven 200-μL doses of 54 µM by oropharyngeal aspiration over 4 days; not significant vs vehicle", "description": "μOCT imaging and analysis were conducted in vitro and ex vivo as detailed in previous publications ([2], [39]–[41]). Briefly, the μOCT system uses light reflectance to produce video-rate (40 frames/s and 512 lines/frame), high-resolution images (1 micron) captured in real-time and without disruption of sample tissue, permitting simultaneous interrogation of key parameters of airway microanatomy without the addition of exogenous particles or dyes. Following imaging of HBEC cultures and of excised trachea and lungs, images were assessed to obtain quantitative measurements of mucociliary transport (MCT) rate, ASL depth, and ciliary beat frequency (CBF). MCT rates were calculated by analyzing the distance traveled by native particles in the mucus layer over time across multiple frames. Direct geometric measurement of layer thickness (Image J software) yielded ASL depths. CBF was determined by using custom code developed in Matlab (Mathworks, Natick, MA) to quantify the reflectance of beating cilia by Fourier analysis. […] The results for each trachea and lung sample reflected an average of measurements from images obtained from a minimum of six controlled points along the tracheal length, using the cranial end as a reference.\nSix-month-old Cftr-knockout rats (female and male) were treated with seven 200-μL doses of either 54 µM AZD5634 or vehicle control, delivered by oropharyngeal aspiration, over 4 days (two doses daily for 3 days and a single dose on the 4th day, 2 h before euthanasia). Rats were euthanized by intraperitoneal injection of pentobarbital sodium (Fatal Plus, 100 mg/kg), and trachea and lungs were excised en bloc and dissected along the dorsal surface from the larynx to the terminal end of the main stem bronchi. […]\n(§1) Descriptive statistics were calculated and means compared using unpaired or paired t tests, or ANOVA, with post hoc analyses conducted for multiple comparisons where appropriate. […]"}, "[1]": {"test_system": "F508del-homozygous HBEC cultures", "experiment": "μOCT imaging of ASL depth, MCT rate and CBF in F508del-homozygous CF HBEC cultures", "format": "cell-based, human", "details": "AZD5634 1 µM apical", "description": "Using previously described techniques ([2], [37]), epithelial cells were harvested from excised lung tissue derived from CF donors homozygous for F508del CFTR, expanded, and grown until confluency was attained. The cells were then seeded on 6.5-mm-diameter, 24-well Transwell permeable membrane supports coated with NIH 3T3 fibroblast unconditioned media (0.5 × 10^6 cells/filter; Corning Inc., Corning, NY) and further allowed to mature in differentiating media (PneumaCult ALI, […] Technologies, Cambridge, MA) for a minimum of 4–5 wk until fully differentiated. To stimulate fresh mucus secretion and formation of an even ASL layer, the cells were washed 48–72 h before experimentation with PneumaCult ALI media (80 µL), added apically, and then aspirated following 30–45 min incubation at 37°C. The washing process was repeated with a 15-min incubation period and the mucus layer was allowed to reestablish, after which the cells were treated with 1 µL of AZD5634 (1 µM, apical), alone and in combination with lumacaftor and ivacaftor (luma/iva; 3 µM/10 µM, basolateral). PBS (1% DMSO, apical) served as a vehicle control. […] Only passage 1 and 2 monolayers were used for these studies.\nμOCT imaging and analysis were conducted in vitro and ex vivo as detailed in previous publications ([2], [39]–[41]). […] Following imaging of HBEC cultures and of excised trachea and lungs, images were assessed to obtain quantitative measurements of mucociliary transport (MCT) rate, ASL depth, and ciliary beat frequency (CBF). MCT rates were calculated by analyzing the distance traveled by native particles in the mucus layer over time across multiple frames. […] CBF was determined by using custom code developed in Matlab (Mathworks, Natick, MA) to quantify the reflectance of beating cilia by Fourier analysis. […]\nas §1"}, "people with CF": {"test_system": "people with CF", "set-up": "method as in PMID 35227647", "details": "single-dose inhalation, NCT02950805; cited from earlier work"}, "[2]": {"test_system": "HBECs grown under ALI conditions", "experiment": "Gravimetric measurement of ASL (fluid retention) in HBEC ALI cultures", "format": "cell-based, human", "details": "gravimetric ALI assay; concentrations of 0.1 µM and above", "description": "After 3–4 wk, the HBEC ALI cultures were washed with PBS twice before the experiment was initiated. Thirty microliters of either vehicle or test compound (10 μM) was added apically and inserts were weighed after removal of basolateral fluid as a crude but simple way to measure retention of fluid on the apical side of the airway cultures. The weighing procedure was repeated at 4, 8, and 24 h."}, "[3]": {"test_system": "sodium/hydrogen exchangers", "set-up": "method as in PMID 33974881", "details": "specificity unknown; cited from earlier work"}, "[4]": {"set-up": "method as in unpublished information", "details": "ref unpublished information, cited from earlier work"}, "sheep ENaC": {"test_system": "sheep ENaC", "experiment": "Ussing chamber short-circuit current (Isc) in sheep bronchial epithelial ALI cultures", "format": "cell-based", "details": "bronchial epithelial cells from healthy sheep, read-out: potency (IC50) on inhibition of ENaC (EC50 in Fig. 1B legend)", "description": "Normal human bronchial epithelial cell (HBEC) cultures from healthy donors were procured from MatTek Corporation (Ashland, MA), grown at an ALI on Transwell permeable supports (0.4 µm polycarbonate membrane, 12 mm insert, and Costar Corning), and used to test the in vitro potency of AZD5634. Using the same protocol, sheep ALI cultures were prepared from primary bronchial epithelial cells (native sheep tracheas were obtained from Öströö Sheep Farm, Sweden, and internally processed at AstraZeneca R&D, Gothenburg, Sweden) to validate AZD5634 potency at sheep ENaC. Experiments were performed using modified Ussing chambers containing carboxygenated Krebs solution (95% O2-5% CO2) at 37°C. Cell layers were allowed to equilibrate before being voltage-clamped at 0 mV, and then briefly clamped at 10 mV to assess transepithelial electrical resistance.\nAll data are presented as means ± SE. Values of n refer to the number of cultures used in each group as appropriate. For normally distributed data, paired or unpaired Student’s t tests were used. For data that were not normally distributed, Mann–Whitney U test and Wilcoxon-matched pairs test were used. […] From these curves, pEC50 and Emax values were taken from which mean values were calculated."}}, "data": [{"substance": "AZD5634", "values": [{"measurement": "ASL depth", "setting": "Cftr^−/− rats", "result": "15.8 ± 2.1", "unit": "µm"}, {"measurement": "MCT rate", "setting": "Cftr^−/− rats", "result": "0.3 ± 0.1", "unit": "mm/min"}, {"measurement": "ciliary beating (CBF)", "setting": "Cftr^−/− rats", "result": "7.9 ± 0.7", "unit": "Hz"}, {"measurement": "ASL depth", "setting": "[1]; 6 h, luma/iva 3 µM/10 µM basolateral, absolute values", "result": "24.8 ± 3.6", "unit": "µm"}, {"measurement": "CBF", "setting": "[1]; absolute value", "result": "8.6 ± 0.5", "unit": "Hz"}, {"measurement": "MCT rate", "setting": "[1]; luma/iva 3 µM/10 µM basolateral, absolute values", "result": "2.5 ± 0.5", "unit": "mm/min"}, {"measurement": "effect on MCC", "setting": "people with CF", "result": "did not demonstrate augmented MCC"}, {"measurement": "duration of (fluid-retaining) effect on ASL", "setting": "[2]", "result": "> 24", "unit": "h"}, {"measurement": "effect on sodium/hydrogen exchangers", "setting": "[3]", "result": "blocks sodium/hydrogen exchangers"}, {"measurement": "hyperkalemia", "setting": "[4]; after inhalation and/or nebulization", "result": "does not cause hyperkalemia"}, {"measurement": "renal clearance", "setting": "[4]", "result": "minimal"}, {"measurement": "IC50", "setting": "sheep ENaC", "result": 5.5, "unit": "nM"}]}]}
